This note sets out measurements from patent US20160166688A9, “COMBINATION THERAPY OF AN AFUCOSYLATED CD20 ANTIBODY WITH BENDAMUSTINE” (Roche Glycart AG, priority 2009, published 2016).

The assay has as its system human Z138 mantle cell lymphoma cell line. The assay can be described thus: Tumor growth inhibition study in vivo, Z138 xenograft. On the set-up: species or system SCID beige mice. The conditions noted are these: for TGI (%): tumor growth inhibition vs. control group on day 33 after tumor cell inoculation, antibodies 1 mg/kg once weekly; for Antitumor activity / tumor growth compared to control group (words): 3 mg/kg i.p., study days 19-22, end of study day 33.

Setting [1] is: i.p., bendamustine 3 mg/kg days 19-22.

Consider “B-HH6-B-KV1 GE: Afucosylated glyco-engineered humanized B-Ly1 type II anti-CD20 IgG1 antibody; VH SEQ ID NO:7 (B-HH6), VL SEQ ID No. 20 (B-KV1)”, for which the “TGI (%)” value under setting [1] came to 47%.
As to `Cn1c(CCCC(=O)O)nc2cc(N(CCCl)CCCl)ccc21` [Bendamustine, 4-[5-[Bis(2-chloroethyl)amino]-1-methylbenzimidazol-2-yl]buta-noic acid], the “Antitumor activity / tumor growth compared to control group (words)” value is recorded as “comparable tumor growth as the control group”. Moreover, where the note is “listed as bendamustine”, the “Antitumor activity / tumor growth compared to control group (words)” value was “did not show any antitumor activity”. Further, the “TGI (%)” value under setting [1] turned out to be 0%. Further, where the note is “vs. vehicle group 1, study end day 33, i.p., antibodies 1 mg/kg once weekly (days 19, 26), bendamustine 3 mg/kg days 19-22”, the “Parametric TCR based on sAUC” value came out at 0.9.
